Results on 5 molecules are retold here after patent publication US5171851A, “Imidazole substituted benzoxazine or benzothiazine derivatives” (Dong-A Pharm. Co., Ltd., priority 1990, dated 1992).

For assay [1], the target named is T1, cyclic AMP phosphodiesterase (Canis lupus familiaris, UniProt A0A8I3NYE0).
T1 construct: Two to four grams of left ventricular muscle was obtained; from tissue; host or cells: dog left ventricular muscle, detergent-extracted particulate fraction, DEAE-cellulose pool
T1 sequence (A0A8I3NYE0 1-1135): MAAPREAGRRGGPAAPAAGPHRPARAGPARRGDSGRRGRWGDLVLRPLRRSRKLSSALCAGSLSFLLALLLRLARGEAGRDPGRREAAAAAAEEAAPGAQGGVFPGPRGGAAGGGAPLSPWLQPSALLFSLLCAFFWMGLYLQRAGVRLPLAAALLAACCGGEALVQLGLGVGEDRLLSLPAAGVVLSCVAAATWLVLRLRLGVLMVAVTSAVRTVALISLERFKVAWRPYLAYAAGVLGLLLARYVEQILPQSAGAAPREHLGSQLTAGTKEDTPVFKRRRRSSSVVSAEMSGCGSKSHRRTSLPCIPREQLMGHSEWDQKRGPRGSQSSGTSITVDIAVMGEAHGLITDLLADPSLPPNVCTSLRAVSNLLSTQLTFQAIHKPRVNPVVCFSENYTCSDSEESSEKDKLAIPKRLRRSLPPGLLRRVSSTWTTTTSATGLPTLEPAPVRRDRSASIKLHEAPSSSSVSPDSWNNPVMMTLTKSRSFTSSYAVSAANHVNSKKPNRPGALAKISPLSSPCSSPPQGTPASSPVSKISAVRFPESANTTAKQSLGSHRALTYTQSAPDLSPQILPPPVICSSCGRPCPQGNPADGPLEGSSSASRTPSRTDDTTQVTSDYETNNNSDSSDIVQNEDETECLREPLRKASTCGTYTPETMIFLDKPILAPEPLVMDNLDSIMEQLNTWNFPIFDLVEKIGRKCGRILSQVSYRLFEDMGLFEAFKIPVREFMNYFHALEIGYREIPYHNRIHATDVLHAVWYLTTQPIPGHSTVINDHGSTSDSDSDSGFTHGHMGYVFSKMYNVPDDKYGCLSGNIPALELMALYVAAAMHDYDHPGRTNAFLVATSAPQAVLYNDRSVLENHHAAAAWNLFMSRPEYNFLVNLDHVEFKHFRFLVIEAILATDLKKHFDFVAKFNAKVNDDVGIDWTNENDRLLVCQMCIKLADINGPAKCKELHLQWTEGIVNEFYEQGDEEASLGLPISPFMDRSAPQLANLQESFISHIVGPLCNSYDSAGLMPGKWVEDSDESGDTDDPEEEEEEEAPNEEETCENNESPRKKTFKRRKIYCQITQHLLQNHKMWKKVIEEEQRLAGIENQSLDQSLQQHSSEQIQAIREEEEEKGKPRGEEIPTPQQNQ
The experiment in a line: effect on cyclic AMP phosphodiesterase isolated from dog's heart. The note with it: substrate 1.0 uM; for Inhibitory effect on PDE activity / inhibition at 10 µM / inhibition at 100 µM: falls with concentration; for Inhibitory effect on PDE activity: unit assumed; for IC50: pH 8.0, read-out: IC 50 (50% inhibition of substrate hydrolysis); for inhibition at 10 µM / inhibition at 100 µM: read-out: Inhibitory effect on PDE activity. It counts as biochemical.

Assay [2] concerns blood perfused papillary muscle preparation. The assay is described as follows: contractile power on blood perfused papillary muscle preparation. Set-up: species or system dog. The note with it: for activation at 0.001 mg: dose 1.0 ug; for activation at 0.003 mg: dose 3.0 ug; for activation at 0.01 mg: dose 10.0 ug; for activation at 0.03 mg: dose 30.0 ug; for ED 30 (developed tension of papillary muscle): least-square method. On the procedure:
Determination of contractile power on blood perfused papillary muscle preparation:
Dogs of either sex weighing 7-12 kg were anesthetized with sodium pentobarbital (30 mg/kg, i.v.). Heparin of 1000 unit/kg was administered to each animal intravenously. The animals were exsanguinated and heart was removed. The preparation was perfused through the cannulated anterior septal artery (ASA) with arterial blood from a donor dog at constant pressure of about […]. Donor dogs were anesthetized with sodium pentobarbital (30 mg/kg, i.v.). Heparin of 1000 units/kg was administered intravenously. The papillary muscle was stimulated with rectangular pulses of 5- ms duration and about 1.5 times the threshold voltage at a rate of 120 stimuli/min through bipolar electrodes. Resting tension was made to 2 g. The developed tension of papillary muscle was determined by Isometric tresducer. Detailed method was reporated by Matsumoto in Am J. Physiol. 218, 1459-1463 (1970). Test compound at the doses of 10-30 ul was injected in flowing blood in the gum tube connected to catheter. The inotropic effect of the test compounds was shown by change percent of developed tension compared with that prior to the administration of the test compounds.

Assay [3] has as its system blood-perfused sino-atrial preparation. The assay is described as follows: sinus rate on blood-perfused sino-atrial preparation. The arrangement: species or system dog. The note with it: for activation at 0.001 mg: dose 1.0 ug; for activation at 0.003 mg: dose 3.0 ug; for activation at 0.01 mg: dose 10.0 ug; for activation at 0.03 mg: dose 30.0 ug. The procedure:
Determination of sinus rate on blood-perfused sino-atrial preparation: Mongrel gods of either sex weighing 7-12 kg were anesthetized with sodium pentoba rbital (30 mg/kg i.v.). Heparin ob 1000 unit/kg was administered to each animal intravenously and the animals were exsanguinated. Heart was removed and put in Krebs-Henseleit solution. Catheter was inserted into blood vessel between right coronary artery and SA nodes. Right atrium and catheter were together removed. Blood supplied from carotid artery of donor dog of either sex weighing 15-25 kg, was supplied to blood vessel cather from right coronary artery and SA node under constant blood pressure of 100 mmHG by use of Peristaltic pump. The resting tension of right atrial muscle was made to 2g. The sinus rate triggered by spontaneous contraction of atrial muscle was determined on Narco physiograph Narcotrace 4). Detailed method was reported by S. Chiba, et al. in Japanese Pharmacology 25, 433-439(1975). Doses of test compounds were injected into flowing blood in gum tube connected to the near part of the catheter inserted into right coronary artery. The effects on sinus rate were shown as percent compared with the sinus ratio prior to the injection of the test compounds.

The next assay deals with anesthetized cats. The assay is described as follows: cardiotonic effect on anesthetized cats. In kind it is in vivo, cat. The note with it: Felis catus; for change in vivo at 0.01 mg/kg: 0.01 mg/Kg iv; for change in vivo at 0.1 mg/kg: 0.1 mg/Kg iv; for change in vivo at 0.31 mg/kg: 0.31 mg/Kg iv. On the procedure: Determination of cardiotonic effect on anesthetized cats: Male cats weighing about 3 kg were anesthetized with sodium pentobarbital (30 mg/kg, i.p.). The same anesthetic was infused intravenously at the does of 4 mg/kg/hr in order to maintain the anesthetic state and mechanically ventilated through a cuffed endotracheal tube, chest was opened by a midline incision and a catheter for measuring left ventricular pressure was inserted through apex into left ventricle and the left ventricular pressure was measured. LVdP/dt was determined by use of diffentiator from the left ventricular pressure. Systemic blood pressure was measured by the left femoral artery by a pressure transducer and heart rate was measured by a cardiotachometer triggered by blood pressure pulses. Test compound was injected into the femoral vein by use of cannule. After completion of the surgical procedures, the cats were allowed to recover about 30 minutes before drug administration. These compounds were dissolved in 0.9% physiological saline and diluted with saline. Solvent such as DMSO or DMF was also used, if necessary. Test compound of 0.1 ml/kg was used. Detailed method was reporated in J. Med. Chem. 30. 1279-87(1987).

Setting [4] is: Canis lupus familiaris, read-out: change of contractivity (%).
Setting [5] is: Canis lupus familiaris, read-out: change of sinus rate (%).

Values joined by “and” are separate entries in the source; they are usually repeats but may differ in a detail not shown here. Identical values can stand only once. Like-named read-outs stand apart in the source and are kept apart here.

Consider “6-(2-methylimidazol-1-yl)-(4H)-3,1-benzimidazol-2-one”, for which the Inhibitory effect on PDE activity in assay [1] (0.1 uM test compound) was 95.9%; in assay [1] (1 uM test compound) it was 86.8%; in assay [1] (10 uM test compound), 62.6%; in assay [1] (100 uM test compound), 37.9%. In addition, the IC50 in assay [1] amounted to 32.4 µM.

Turning to `Cc1nccn1-c1ccc2c(c1)COC(=O)N2` [6-(2-methylimidazol-1-yl)-(4H)-3,1-benzoxazine-2-one], in assay [2] (setting [4]), the activation at 0.001 mg turned out to be 0%, the activation at 0.003 mg was 2.44%, the activation at 0.01 mg is 8.57% and the activation at 0.03 mg is 13.5%. For the same molecule, the “ED 30 (developed tension of papillary muscle)” value in assay [2] was over 1000 µg. In addition, in assay [3] (setting [5]), the activation at 0.001 mg was found to be 0%, the activation at 0.003 mg is 0%, the activation at 0.01 mg came to 0.86% and the activation at 0.03 mg stood at 3.42%. Besides, in assay [1] (10 uM test compound), the inhibition at 10 µM amounted to 51.7%. Besides, in assay [1] (100 uM test compound), the inhibition at 100 µM was 35.8%. In assay [1], the IC50 was found to be 12.8 µM.

For the molecule `O=C1Nc2ccc(-n3cnc4ccccc43)cc2CO1` [6-(benzimidazol-1-yl)-(4H)-3,1-benzoxazin-2-one], in assay [2] (setting [4]), the activation at 0.001 mg turned out to be 0%, the activation at 0.003 mg came out at 1.13%, the activation at 0.01 mg stood at 2.63% and the activation at 0.03 mg worked out at 5.24%. For the same molecule, in assay [2], the “ED 30 (developed tension of papillary muscle)” value is over 1000 µg. In addition, in assay [3] (setting [5]), the activation at 0.001 mg came out at 0%, the activation at 0.003 mg came to 0%, the activation at 0.01 mg came to 0.3% and the activation at 0.03 mg was 0.75%. For the same molecule, the inhibition at 10 µM in assay [1] (10 uM test compound) was 61.6%. The inhibition at 100 µM in assay [1] (100 uM test compound) was determined as 30.1%.

Consider `O=C1Nc2ccc(-n3ccnc3)cc2CO1` [6-(imidazol-1-yl)-(4H)-3,1-benzoxazin-2-one], for which, in assay [2] (setting [4]), the activation at 0.001 mg was 3.33%, the activation at 0.003 mg was found to be 6.95%, the activation at 0.01 mg came out at 9.76% and the activation at 0.03 mg stood at 16.2%. In addition, the “ED 30 (developed tension of papillary muscle)” value in assay [2] was over 1000 µg. Also, in assay [3] (setting [5]), the activation at 0.001 mg came to 0%, the activation at 0.003 mg stood at 0.84%, the activation at 0.01 mg came to 2.52% and the activation at 0.03 mg came out at 6.67%. In assay [1] (10 uM test compound), the inhibition at 10 µM was found to be 60%. Besides, the inhibition at 100 µM in assay [1] (100 uM test compound) is 41.8%. The IC50 in assay [1] is 31 µM and 12.7 µM.

`Cc1cn(-c2cc(C)c3c(c2)COC(=O)N3)cn1` [8-methyl-6-(4-methylimidazol-1-yl)-(4H)-3,1-benzoxazin-2-one]: the activation at 0.0001 mg in assay [2] (Canis lupus familiaris, dose 0.1 ug, read-out: change of contractivity (%)) was 4.3%; in assay [3] (Canis lupus familiaris, dose 0.1 ug, read-out: change of sinus rate (%)) it was 0.8%. The activation at 0.0003 mg in assay [2] (Canis lupus familiaris, dose 0.3 ug, read-out: change of contractivity (%)) amounted to 8.7%; in assay [3] (Canis lupus familiaris, dose 0.3 ug, read-out: change of sinus rate (%)), 1.7%. In addition, the activation at 0.001 mg turned out to be 23.9% in assay [2] (setting [4]) and 6.6% in assay [3] (setting [5]). The activation at 0.003 mg is 79.2% in assay [2] (setting [4]) and 5.8% in assay [3] (setting [5]). For the same molecule, the “ED 30 (developed tension of papillary muscle)” value in assay [2] amounted to 1.2 µg. Further, in assay [3] (at the ED 30 dose), the “change of sinus rate (%)” value is listed as “+5.0%”. Further, the change in vivo at 0.01 mg/kg in the assay on anesthetized cats (read-out: HR (%)) is 2%; in the assay on anesthetized cats (read-out: LV dp/dt (%)), 20%; in the assay on anesthetized cats (read-out: LVP (%)), 0.1%; with anesthetized cats (read-out: SBP (%)) it was -1.7%; with anesthetized cats (read-out: dBP) it was -8.5%; in the assay on anesthetized cats (read-out: mBP (%)) it was -5.5%. The change in vivo at 0.1 mg/kg in the assay on anesthetized cats (read-out: HR (%)) is 7.5%; in the assay with anesthetized cats (read-out: LV dp/dt (%)), 50%; in the assay with anesthetized cats (read-out: LVP (%)), 4.4%; with anesthetized cats (read-out: SBP (%)), -6.6%; in the assay with anesthetized cats (read-out: dBP), -20%; in the assay with anesthetized cats (read-out: mBP (%)) it was -13.9%. Also, the change in vivo at 0.31 mg/kg in the assay on anesthetized cats (read-out: HR (%)) is 4.4%; with anesthetized cats (read-out: LV dp/dt (%)) it was 40%; with anesthetized cats (read-out: LVP (%)), 1.2%; in the assay on anesthetized cats (read-out: SBP (%)) it was -3.4%; in the assay with anesthetized cats (read-out: dBP) it was -14.3%; in the assay on anesthetized cats (read-out: mBP (%)), -9.3%. Further, in assay [1], the IC50 is 2.4 µM and 4.3 µM and 4.05 µM.
